{
  "source": "patent US20210171589A1",
  "about": "“TRUNCATED CARTILAGE-HOMING PEPTIDES AND PEPTIDE COMPLEXES AND METHODS OF USE THEREOF” (BLAZE BIOSCIENCE, INC., priority 2018, published 2021)",
  "key": {"cartilage": {"tested_on": "cartilage", "test": "Peptide homing with kidney ligation (autoradiography)", "type": "in vivo, Female Harlan athymic nude mice", "conditions": "mice with ligated kidneys, 50-100 nmol via tail vein injection", "procedure": "This example describes a dosing scheme for administering peptides to mice in conjunction with kidney ligation. Different dosages of the peptides of SEQ ID NO:149 and SEQ ID NO:150 were administered to Female Harlan athymic nude mice, weighing 20 g-25 g, via tail vein injection (n=2 mice per peptide). The experiment was done in duplicates. The kidneys were ligated to prevent renal filtration of the peptides. Each peptide was radiolabeled by methylating lysines and the N-terminus, so the actual binding agent may contain methyl or dimethyl lysine(s) and a methylated or dimethylated amino terminus.\nA target dosage of 50-100 nmol of each peptide carrying 10-25 uCi of ^14C was administered to Female Harlan athymic nude mice while anesthetized. Each peptide was allowed to freely circulate within the animal before the animals were euthanized and sectioned.\nThis example illustrates peptide homing to cartilage of mice with kidneys that were ligated prior to peptide administration. At the end of the dosing period in EXAMPLE 4, mice were frozen in a hexane/dry ice bath and then frozen in a block of carboxymethylcellulose. […]"}, "cartilage and kidneys": {"tested_on": "cartilage and kidneys", "test": "Peptide homing with intact kidneys (autoradiography)", "type": "in vivo, Female Harlan athymic nude mice", "procedure": "Additionally, the peptide can be retained in cartilage for hours after treatment. The SEQ ID NO: 150 peptide was radiolabeled as in EXAMPLE 4 and 100 nmol of peptide was injected into a mouse with intact kidneys.\nThis example describes a dosing scheme for administering peptides to mice without kidney ligation. The peptide administered had the sequence of SEQ ID NO: 150. The peptide was radiolabeled by methylating lysines and the N-terminus, so the actual binding agent may contain methyl or dimethyl lysine(s) and a methylated or dimethylated amino terminus.\nA target dosage of 100 nmol of each peptide carrying 10-25 μCi of ^14C was administered to Female Harlan athymic nude mice by a tail vein injection. Each peptide was allowed to freely circulate within the animal for either 4 hours or 24 hours before the animals were euthanized and sectioned.\nThis example illustrates peptide homing to cartilage in animals with intact kidneys. At the end of the 4 hour or 24 hour dosing periods in EXAMPLE 6, mice were frozen in a hexane/dry ice bath and then frozen in a block of carboxymethylcellulose. […]"}, "[1]": {"tested_on": "cartilage (intervertebral discs, knee joints)", "test": "Whole body autoradiography of radiolabeled cartilage homing peptides", "type": "in vivo, Female Harlan athymic nude mice", "conditions": "for Signal of folded knotted peptide as compared to the linearized peptide of SEQ ID NO: 218: TABLE 8 versus TABLE 9; for Homing of radiolabeled peptide to cartilage: mice, 100 nmol via tail vein injection, 5 minutes to 48 hours", "procedure": "This example illustrates peptide homing to cartilage mice 5 minutes to 48 hours after administration of a radiolabeled peptide. Signal from the radiolabeled peptides was found in all types of cartilage at each time point examined. Each peptide was radiolabeled by methylating […] as described in EXAMPLE 2. As such, the peptide may contain methyl or dimethyl lysines and a methylated or dimethlyated amino terminus. A dose of 100 nmol radiolabeled peptide was administered via tail vein injection in Female Harlan athymic nude mice, weighing 20-25 g. The experiment was done in duplicate (n=2 animals per group). Each radiolabeled peptide was allowed to freely circulate within the animal for the described time period before the animals were euthanized and sectioned.\nWhole body autoradiography (WBA) sagittal sectioning was performed as follows. At the end of the dosing period, mice were frozen in a hexane/dry ice bath and then embedded in a frozen block of carboxymethylcellulose. […] Sections were allowed to dessicate in a freezer prior to imaging. For the autoradiography imaging, tape mounted thin sections were freeze dried and radioactive samples were exposed to phosphoimager plates. These plates were developed and the signal (densitometry) from each organ was normalized to the signal found in the cardiac blood of each animal. A signal in tissue darker than the signal expected from blood in that tissue indicates accumulation in a region, tissue, structure, or cell."}, "[2]": {"test": "Stability testing of peptide in solution, RP-HPLC", "type": "physicochemical", "conditions": "5 mg/mL in 50 mM Tris, 5% Mannitol, pH 7.6", "procedure": "This example describes stability testing of peptides of the present disclosure. A 5 mg/mL solution of SEQ ID NO: 149 (also disclosed as SEQ ID NO: 46; non-GS version of SEQ ID NO: 149/SEQ ID NO: 46 are shown in SEQ ID NO: 128 and SEQ ID NO: 205) was prepared in 50 mM Tris, 5% Mannitol, pH 7.6. The stability of SEQ ID NO: 149 in solution was assessed by stressing the sample at 40° C. for 10 days and analyzed by RP-HPLC side-by-side with an unstressed sample prepared under the same conditions and stored at −20° C. […] This change was predominantly the result of an increase in area of one predominant impurity peak eluting after the main peak in the sample that was exposed to the higher temperature. No other impurities present in the initial sample increased substantially and no substantial new impurities were seen."}, "[3]": {"tested_on": "cartilage (intervertebral discs, knee joints)", "test": "Whole body autoradiography of radiolabeled cartilage homing peptides", "type": "in vivo, Female Harlan athymic nude mice"}},
  "note": "Bridge positions count the residues as written; N and C are the ends. Peptide text beside a SMILES is read from it.",
  "data": [
    {"compound": "CC[C@H](C)[C@@H]1NC(=O)[C@@H]2CSSC[C@H](NC(=O)[C@H](CCCCN)NC(=O)[C@@H](NC(=O)[C@H](CC(N)=O)NC(=O)[C@@H](NC(=O)[C@@H]3CCCN3C(=O)[C@@H](NC(=O)CNC(=O)[C@H](CO)NC(=O)CN)C(C)C)[C@@H](C)CC)C(C)C)C(=O)N[C@@H](CCCNC(=N)N)C(=O)NCC(=O)N[C@@H](CO)C(=O)N[C@@H](CCCNC(=N)N)C(=O)N[C@@H](CC(=O)O)C(=O)N[C@H]3CSSC[C@H](NC(=O)[C@H](CCCCN)NC(=O)[C@H](CO)NC(=O)[C@H](CC(N)=O)NC1=O)C(=O)N[C@@H](Cc1c[nH]cn1)C(=O)N[C@H](C(=O)N[C@H](C(=O)N1CCC[C@H]1C(=O)O)[C@@H](C)O)CSSC[C@H](NC(=O)[C@@H]1CCCN1C(=O)[C@H](CC(=O)O)NC(=O)[C@H](CC(C)C)NC3=O)C(=O)N[C@@H](CCCCN)C(=O)N[C@@H](CCCCN)C(=O)N[C@@H](C)C(=O)NCC(=O)N[C@@H](CCSC)C(=O)N[C@@H](CCCNC(=N)N)C(=O)N[C@@H](Cc1ccccc1)C(=O)NCC(=O)N[C@@H](CCCCN)C(=O)N2", "note": "[SEQ ID NO: 150] (H-GSGVPINVKCRGSRDCLDPCKKAGMRFGKCINSKCHCTP-OH; disulfide 10-30, 16-35, 20-37; N-terminus and C-terminus assumed)", "values": [
      {"measurement": "Peptide distribution (14C signal)", "setting": "cartilage", "value": "distribution in joint and other cartilage"},
      {"measurement": "Peptide distribution (14C signal)", "setting": "cartilage and kidneys; mice with intact kidneys, 100 nmol via tail vein injection, 4 hours or 24 hours", "value": "distribution in joint and other cartilage as well as kidneys"},
      {"measurement": "Retention and tissue distribution in cartilage", "setting": "cartilage and kidneys; mouse with intact kidneys, 100 nmol, 24 hours after administration", "value": "retention of and the tissue distribution in the cartilage"}
    ]},
    {"compound": "GSGVPINVRCRGSRDCLDPCRRAGMRFGRCINSRCHCTP [SEQ ID NO: 149]", "values": [
      {"measurement": "Signal of folded knotted peptide as compared to the linearized peptide of SEQ ID NO: 218", "setting": "[1]; at 3 hours", "value": "~20", "unit": "fold"},
      {"measurement": "Signal of folded knotted peptide as compared to the linearized peptide of SEQ ID NO: 218", "setting": "[1]; at 24 hours", "value": "~50", "unit": "fold"},
      {"measurement": "Signal of radiolabeled peptide in IVD as a Percentage of Blood", "setting": "[1]; intervertebral discs, 0.08 hours after 100 nmol via tail vein injection", "value": "164 Percentage of Blood"},
      {"measurement": "Signal of radiolabeled peptide in IVD as a Percentage of Blood", "setting": "[1]; intervertebral discs, 0.5 hours after 100 nmol via tail vein injection", "value": "369 Percentage of Blood"},
      {"measurement": "Signal of radiolabeled peptide in IVD as a Percentage of Blood", "setting": "[1]; intervertebral discs, 1 hour after 100 nmol via tail vein injection", "value": "961 Percentage of Blood"},
      {"measurement": "Signal of radiolabeled peptide in IVD as a Percentage of Blood", "setting": "[1]; intervertebral discs, 3 hours after 100 nmol via tail vein injection", "value": "3213 Percentage of Blood"},
      {"measurement": "Signal of radiolabeled peptide in IVD as a Percentage of Blood", "setting": "[1]; intervertebral discs, 8 hours after 100 nmol via tail vein injection", "value": "3777 Percentage of Blood"},
      {"measurement": "Signal of radiolabeled peptide in IVD as a Percentage of Blood", "setting": "[1]; intervertebral discs, 24 hours after 100 nmol via tail vein injection", "value": "5391 Percentage of Blood"},
      {"measurement": "Signal of radiolabeled peptide in IVD as a Percentage of Blood", "setting": "[1]; intervertebral discs, 48 hours after 100 nmol via tail vein injection", "value": "3320 Percentage of Blood"},
      {"measurement": "Signal of radiolabeled peptide in Knee Joints as a Percentage of Blood", "setting": "[1]; 0.08 hours after 100 nmol via tail vein injection", "value": "404 Percentage of Blood"},
      {"measurement": "Signal of radiolabeled peptide in Knee Joints as a Percentage of Blood", "setting": "[1]; 0.5 hours after 100 nmol via tail vein injection", "value": "510 Percentage of Blood"},
      {"measurement": "Signal of radiolabeled peptide in Knee Joints as a Percentage of Blood", "setting": "[1]; 1 hour after 100 nmol via tail vein injection", "value": "1114 Percentage of Blood"},
      {"measurement": "Signal of radiolabeled peptide in Knee Joints as a Percentage of Blood", "setting": "[1]; 3 hours after 100 nmol via tail vein injection", "value": "4059 Percentage of Blood"},
      {"measurement": "Signal of radiolabeled peptide in Knee Joints as a Percentage of Blood", "setting": "[1]; 8 hours after 100 nmol via tail vein injection", "value": "4990 Percentage of Blood"},
      {"measurement": "Signal of radiolabeled peptide in Knee Joints as a Percentage of Blood", "setting": "[1]; 24 hours after 100 nmol via tail vein injection", "value": "2137 Percentage of Blood"},
      {"measurement": "Signal of radiolabeled peptide in Knee Joints as a Percentage of Blood", "setting": "[1]; 48 hours after 100 nmol via tail vein injection", "value": "843 Percentage of Blood"},
      {"measurement": "Homing of radiolabeled peptide to cartilage", "setting": "[1]", "value": "homed to and accumulated in the cartilage"},
      {"measurement": "Purity by RP-HPLC of stressed sample", "setting": "[2]; 40° C. for 10 days", "value": 93.5, "unit": "%"},
      {"measurement": "Visual inspection of the samples (solubility, precipitation)", "setting": "[2]; 40° C. for 10 days versus −20° C.", "value": "no change in solubility"},
      {"measurement": "Initial purity by RP-HPLC (non-stressed sample)", "setting": "[2]; stored at −20° C.", "value": 96.4, "unit": "%"}
    ]},
    {"compound": "GSGVPINVRSRGSRDSLDPSRRAGMRFGRSINSRSHSTP [SEQ ID NO: 218, reference compound]", "values": [
      {"measurement": "Signal of radiolabeled peptide in IVD as a Percentage of Blood", "setting": "[3]; 3 hr, Ligated Kidneys", "value": "117 Percentage of Blood"},
      {"measurement": "Signal of radiolabeled peptide in IVD as a Percentage of Blood", "setting": "[3]; 24 hr, Intact Kidneys", "value": "104 Percentage of Blood"},
      {"measurement": "Signal of radiolabeled peptide in IVD as a Percentage of Blood", "setting": "[1]; 3 hr, Intact Kidneys", "value": "177 Percentage of Blood"},
      {"measurement": "Homing of radiolabeled peptide to cartilage", "setting": "[1]", "value": "homed to cartilage to a much lesser extent"}
    ]},
    {"compound": "GSKCRGSRDCLDPCKKAGMRFGKCINSKCHCTP [SEQ ID NO: 27]", "values": [
      {"measurement": "Peptide distribution (14C signal)", "setting": "cartilage", "value": "distribution in nasal, spinal, tracheal, and other cartilage"}
    ]}
  ]
}
